Source: US6534446B1, “Method to mitigate plant stress” (Emerald BioAgriculture Corporation, priority 1994, dated 2003)

Assays:
Format in all cases: in vivo
[1] = tested on: Roundup Ready cotton seeds; assay: Cold-induced inhibition of cotton seed germination; conditions: for number of cotton seeds germinated / Fresh Wt.: 300 ppm each component; for Fresh Wt.: seedlings harvested 17 days after planting
cabbage plants = assay: Heat stress in cabbage, fresh weight; conditions: CaNO3 2500 ppm alone
Duckweed = assay: Copper salt stress in duckweed, dry weight; conditions: fifteen days of growth

SMILES | number of cotton seeds germinated ([1]; 5 days after planting, 59° F. (15° C.)/50° F. (10° C.), 45 seeds) | number of cotton seeds germinated ([1]; 5 days after planting, 75° F. (24° C.), 45 seeds per treatment) | number of cotton seeds germinated ([1]; 7 days after planting, 59° F. (15° C.)/50° F. (10° C.), 45 seeds) | number of cotton seeds germinated ([1]; 7 days after planting, 75° F. (24° C.), 45 seeds) | number of cotton seeds germinated ([1]; 9 days after planting, 59° F. (15° C.)/50° F. (10° C.), 45 seeds) | number of cotton seeds germinated ([1]; 9 days after planting, 75° F. (24° C.), 45 seeds) | seeds germinated, % of all seeds ([1]; 9 days after planting, low temperatures, 45 seeds per treatment) | number of cotton seeds germinated ([1]; 13 days after planting, 59° F. (15° C.)/50° F. (10° C.), 45 seeds) | number of cotton seeds germinated ([1]; 13 days after planting, 75° F. (24° C.), 45 seeds) | number of cotton seeds germinated ([1]; 17 days after planting, 59° F. (15° C.)/50° F. (10° C.), 45 seeds) | number of cotton seeds germinated ([1]; 17 days after planting, 75° F. (24° C.), 45 seeds) | Fresh Wt. ([1]; 59° F. (15° C.)/50° F. (10° C.)) | Fresh Wt. ([1]; 75° F. (24° C.)) | Mean Fresh Weight (g) ± SD (cabbage plants; oven at 48° C. (118° F.) for twelve hours, weighed one week later) | % of Room Temperature Control (cabbage plants; oven at 48° C. for twelve hours) | Average Dry Weight (mg) ± SD (Duckweed; Copper 1.7 ppm) | % Change From Control (Duckweed; Copper 3.3 ppm) | Average Dry Weight (mg) ± SD (Duckweed; Copper 3.3 ppm)
O=[N+]([O-])[O-].O=[N+]([O-])[O-].[Ca+2] [CaNO3, calcium nitrate] | 0 | 9 | 0 | 38 | 6 | 41 | 13% | 23 | 42 | 31 | 43 | 4.01 g | 8.70 g | 28.8 ± 5.6 g | 77% |  |  | 
O.O.O.O.O.O=S(=O)([O-])[O-].[Cu+2] [Copper, CuSo4SH2O] |  |  |  |  |  |  |  |  |  |  |  |  |  |  |  | 18.0 ± 4.7 mg | −70% | 8.3 ± 0.7 mg
